Reference: US8815796B2, “Polyheterocyclic compounds highly potent as HCV inhibitors” (AB Pharma Ltd., priority 2010, dated 2014)
Read-outs that look alike come from different tables or passages of the source.

Molecular target: T1, HCV NS3-4A protease (Hepatitis C virus genotype 1a, UniProt P27958)
T1 construct: HCV NS3-4A protease
Assay: HCV NS3-4A protease assay in vitro (FRET-S substrate)
Type: biochemical
Description: HCV NS3-4A Protease Assay In Vitro.
The assay was conducted in Buffer A containing 30 mM NaCl, 5 mM CaCl2, 10 mM DTT, 50 mM Tris (pH7.8), using the Ac-Asp-Glu-Asp(EDANS)-Glu-Glu-Abu-ψ-[COO]-Ala-Ser-Lys (DABCYL)-NH2 (FRET-S) fluorescent peptide (AnaSpec, USA) as substrate. Briefly, 140 μL buffer A, 20 μL compounds dissolved in buffer A with different concentration and 20 μL HCV NS3-4A protease diluted in buffer A were added into 96-well plate respectively and mixed well. The reaction was initiate with adding 20 μL of FRET-S. Reactions were continuously monitored at 37° C. using a BMG Polarstar Galaxy (MTX Lab Systems, Inc. USA), with excitation and emission filters of 355 nm and 520 nm, respectively. The 50% inhibitory concentration (IC50) was calculated with Reed & Muench methods.

[1] = HCV NS3-4A protease inhibition, 37° C., class symbols, read-out: NS3-NS4A IC50

T1 sequence (P27958 1027-1657): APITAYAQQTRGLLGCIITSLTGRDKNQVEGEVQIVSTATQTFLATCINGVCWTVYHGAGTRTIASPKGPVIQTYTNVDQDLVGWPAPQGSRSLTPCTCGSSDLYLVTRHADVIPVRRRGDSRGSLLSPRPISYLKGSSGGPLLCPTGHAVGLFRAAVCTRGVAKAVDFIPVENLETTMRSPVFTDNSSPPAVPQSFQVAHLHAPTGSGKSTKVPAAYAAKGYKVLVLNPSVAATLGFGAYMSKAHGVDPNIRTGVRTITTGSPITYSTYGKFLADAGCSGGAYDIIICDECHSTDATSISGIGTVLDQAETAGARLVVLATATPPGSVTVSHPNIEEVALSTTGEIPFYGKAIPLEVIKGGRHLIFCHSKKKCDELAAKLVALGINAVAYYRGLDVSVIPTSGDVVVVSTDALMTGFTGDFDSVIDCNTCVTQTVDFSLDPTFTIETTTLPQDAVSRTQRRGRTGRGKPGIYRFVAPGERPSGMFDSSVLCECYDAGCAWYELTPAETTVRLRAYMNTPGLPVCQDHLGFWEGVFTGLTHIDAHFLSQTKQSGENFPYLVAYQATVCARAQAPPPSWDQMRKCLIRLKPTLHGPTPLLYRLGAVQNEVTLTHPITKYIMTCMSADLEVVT
T1 sequence (P27958 1658-1711): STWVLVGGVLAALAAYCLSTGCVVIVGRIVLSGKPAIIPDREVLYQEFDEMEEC

Compound	IC50	IC50 [1]
CC[C@H]1C[C@@]1(NC(=O)C1C[C@@H](OC(=O)N2Cc3cc4c(cc3C2)OCO4)CN1C(=O)[C@@H](NC(=O)[C@@H](NC(=O)OCC1c2ccccc2-c2ccccc21)C1CCCCC1)C(C)(C)C)C(=O)NS(=O)(=O)C1CC1 (stereo partly shown) [Compound 30aa]	< 30 nM	
CC(C)(C)OC(=O)N[C@H]1CCCCC/C=C\[C@@H]2C[C@@]2(C(=O)NS(=O)(=O)C2CC2)NC(=O)[C@@H]2C[C@@H](OC(=O)N3Cc4ccc5c(c4C3)OCCCO5)CN2C1=O [Compound 12n]		< 30 nM
CN1CCCC/C=C\[C@@H]2C[C@@]2(C(=O)NS(=O)(=O)C2CC2)NC(=O)[C@@H]2C[C@@H](OC(=O)N3Cc4cc5c(cc4C3)OCO5)CC2C1=O (stereo partly shown) [Compound 21c]		< 30 nM
C=C[C@H]1C[C@@]1(NC(=O)C1C[C@@H](OC(=O)N2Cc3cc4c(cc3C2)OCCO4)CN1C(=O)[C@@H](NC(=O)[C@@H](NC(=O)c1cnccn1)C1CCCCC1)C(C)(C)C)C(=O)NS(=O)(=O)C1CC1 (stereo partly shown) [Compound 30c]	< 30 nM	
CC(C)(C)OC(=O)N[C@H]1CCCCC/C=C\[C@@H]2C[C@@]2(C(=O)NS(=O)(=O)C2CC2)NC(=O)[C@@H]2C[C@@H](OC(=O)N3Cc4cccc(F)c4C3)CN2C1=O [Compound 12-Ref, reference compound]		< 30 nM
CN1CCCCC/C=C\[C@@H]2C[C@@]2(C(=O)NS(=O)(=O)C2CC2)NC(=O)[C@@H]2C[C@@H](OC(=O)N3Cc4cc5c(cc4C3)OCO5)CC2C1=O (stereo partly shown) [Compound 21e]		< 30 nM
C=C[C@H]1C[C@@]1(NC(=O)C1C[C@@H](OC(=O)N2Cc3cc4c(cc3C2)OCO4)CN1C(=O)[C@@H](NC(=O)NC(C)(C)C)C(C)(C)C)C(=O)NS(=O)(=O)C1CC1 (stereo partly shown) [Compound 30ar]		< 30 nM
CC(C)(C)OC(=O)N([C@H]1CCCCC/C=C\[C@@H]2C[C@@]2(C(=O)NS(=O)(=O)C2CC2)NC(=O)[C@@H]2C[C@@H](OC(=O)N3Cc4cc5c(cc4C3)OCO5)CN2C1=O)S(C)(=O)=O [Compound 12s]		< 30 nM
CN1CCCCC/C=C\[C@@H]2C[C@@]2(C(=O)NS(=O)(=O)C2CC2)NC(=O)[C@@H]2CC(OC(=O)N3Cc4cc5c(cc4C3)OCO5)CN2C1=O (stereo partly shown) [Compound 27a]		30 to 200 nM
O=C1N[C@]2(C(=O)NS(=O)(=O)C3CC3)C[C@H]2/C=C\CCCCN(C2CC2)C(=O)C2C[C@H](OC(=O)N3Cc4ccc5c(c4C3)OCO5)C[C@@H]12 (stereo partly shown) [Compound 21f]		30 to 200 nM
CN1CCCCC/C=C\[C@@H]2C[C@@]2(C(=O)NS(=O)(=O)C2CC2)NC(=O)[C@@H]2CC(OC(=O)N3Cc4cccc(F)c4C3)CN2C1=O (stereo partly shown) [Compound 27-Ref, reference compound]		30 to 200 nM
CC(C)(C)OC(=O)N[C@H]1CCCCC/C=C\[C@@H]2C[C@@]2(C(=O)NS(=O)(=O)C2CC2)NC(=O)[C@@H]2C[C@@H](OC(=O)N3Cc4ccc5c(c4C3)OCO5)CN2C1=O [Compound 12a]		< 30 nM
CC(C)S(=O)(=O)NC(=O)[C@@]12C[C@H]1/C=C\CCCCC[C@H](NC(=O)OC(C)(C)C)C(=O)N1C[C@H](OC(=O)N3Cc4ccc5c(c4C3)OCO5)C[C@H]1C(=O)N2 [Compound 12e]		< 30 nM
CC(C)(C)OC(=O)N[C@H]1CCCCC/C=C\[C@@H]2C[C@@]2(C(=O)NS(=O)(=O)C2CC2)NC(=O)[C@@H]2C[C@@H](OC(=O)N3Cc4cc5c(cc4C3)OCCO5)CN2C1=O [Compound 12c]		< 30 nM
O=C1N[C@]2(C(=O)NS(=O)(=O)C3CC3)C[C@H]2/C=C\CCCCCN(C2CC2)C(=O)C2C[C@H](OC(=O)N3Cc4ccc5c(c4C3)OCO5)C[C@@H]12 (stereo partly shown) [Compound 21d]		30 to 200 nM
C=C[C@H]1C[C@@]1(NC(=O)C1C[C@@H](OC(=O)N2Cc3cc4c(cc3C2)OCO4)CN1C(=O)[C@@H](NC(=O)[C@@H](NC(=O)c1cnccn1)C1CCCCC1)C(C)(C)C)C(=O)NS(=O)(=O)C1CC1 (stereo partly shown) [Compound 30a]	< 30 nM	
CC(C)(C)OC(=O)N[C@H]1CCCCC/C=C\[C@@H]2C[C@@]2(C(=O)O)NC(=O)[C@@H]2C[C@@H](OC(=O)N3Cc4ccc5c(c4C3)OCCO5)CN2C1=O [Compound 11b]		> 200 nM
CC[C@H]1C[C@@]1(NC(=O)C1C[C@@H](OC(=O)N2Cc3cc4c(cc3C2)OCO4)CN1C(=O)[C@@H](NC(=O)OC1CCCC1)C(C)(C)C)C(=O)NS(=O)(=O)C1CC1 (stereo partly shown) [Compound 30am]		< 30 nM
CC[C@H]1C[C@@]1(NC(=O)C1C[C@@H](OC(=O)N2Cc3cc4c(cc3C2)OCCCO4)CN1C(=O)[C@@H](NC(=O)[C@@H](NC(=O)OC1CCCC1)C1CCCCC1)C(C)(C)C)C(=O)NS(=O)(=O)C1CC1 (stereo partly shown) [Compound 30ae]	30 to 200 nM	
O=C1N[C@]2(C(=O)NS(=O)(=O)C3CC3)C[C@H]2/C=C\CCCCCN(C2CC2)C(=O)C2C[C@H](OC(=O)N3Cc4cc5c(cc4C3)OCO5)C[C@@H]12 (stereo partly shown) [Compound 21b]		30 to 200 nM

Compound	IC50	IC50 [1]
CC[C@H]1C[C@@]1(NC(=O)C1C[C@@H](OC(=O)N2Cc3cc4c(cc3C2)OCO4)CN1C(=O)[C@@H](NC(=O)[C@@H](NC(=O)c1cnccn1)C1CCCCC1)C(C)(C)C)C(=O)NS(=O)(=O)C1CC1 (stereo partly shown) [Compound 30b]	< 30 nM	
O=C1N[C@]2(C(=O)NS(=O)(=O)C3CC3)C[C@H]2/C=C\CCCCC[C@H](N2CCCS2(=O)=O)C(=O)N2C[C@H](OC(=O)N3Cc4cc5c(cc4C3)OCO5)C[C@@H]12 [Compound 12k]		< 30 nM
CC[C@H]1C[C@@]1(NC(=O)C1C[C@@H](OC(=O)N2Cc3cc4c(cc3C2)OCO4)CN1C(=O)[C@@H](NC(=O)[C@@H](NS(=O)(=O)c1cccc2ccccc12)C1CCCCC1)C(C)(C)C)C(=O)NS(=O)(=O)C1CC1 (stereo partly shown) [Compound 30p]		< 30 nM
CC[C@H]1C[C@@]1(NC(=O)C1C[C@@H](OC(=O)N2Cc3cc4c(cc3C2)OCO4)CN1C(=O)[C@@H](NC(=O)OC(C)(C)C)C(C)(C)C)C(=O)NS(=O)(=O)C1CC1 (stereo partly shown) [Compound 30ag]		< 30 nM
CC[C@H]1C[C@@]1(NC(=O)C1C[C@@H](OC(=O)N2Cc3cc4c(cc3C2)OCCCO4)CN1C(=O)[C@@H](NC(=O)[C@@H](NC(=O)c1cnccn1)C1CCCCC1)C(C)(C)C)C(=O)NS(=O)(=O)C1CC1 (stereo partly shown) [Compound 30h]	< 30 nM	
CC[C@H]1C[C@@]1(NC(=O)C1C[C@@H](OC(=O)N2Cc3cc4c(cc3C2)OCO4)CN1C(=O)[C@@H](NC(=O)[C@@H](NC(=O)Oc1ccccc1)C1CCCCC1)C(C)(C)C)C(=O)NS(=O)(=O)C1CC1 (stereo partly shown) [Compound 30z]	< 30 nM	
CC[C@H]1C[C@@]1(NC(=O)C1C[C@@H](OC(=O)N2Cc3cc4c(cc3C2)OCO4)CN1C(=O)[C@@H](NC(=O)[C@@H](NC(=O)NC(C)(C)C)C1CCCCC1)C(C)(C)C)C(=O)NS(=O)(=O)C1CC1 (stereo partly shown) [Compound 30ac]	< 30 nM	
CC[C@H]1C[C@@]1(NC(=O)C1C[C@@H](OC(=O)N2Cc3ccc4c(c3C2)OCO4)CN1C(=O)[C@@H](NC(=O)[C@@H](NC(=O)c1cnccn1)C1CCCCC1)C(C)(C)C)C(=O)NS(=O)(=O)C1CC1 (stereo partly shown) [Compound 30f]	< 30 nM	
C=C[C@H]1C[C@@]1(NC(=O)C1C[C@@H](OC(=O)N2Cc3ccc4c(c3C2)OCCO4)CN1C(=O)[C@@H](NC(=O)[C@@H](NC(=O)c1cnccn1)C1CCCCC1)C(C)(C)C)C(=O)NS(=O)(=O)C1CC1 (stereo partly shown) [Compound 30d]	< 30 nM	
C=C[C@H]1C[C@@]1(NC(=O)C1C[C@@H](OC(=O)N2Cc3cc4c(cc3C2)OCCCO4)CN1C(=O)[C@@H](NC(=O)[C@@H](NC(=O)c1cnccn1)C1CCCCC1)C(C)(C)C)C(=O)NS(=O)(=O)C1CC1 (stereo partly shown) [Compound 30g]	< 30 nM	
CC(C)S(=O)(=O)NC(=O)[C@@]12C[C@H]1/C=C\CCCCC[C@H](NC(=O)OC(C)(C)C)C(=O)N1C[C@H](OC(=O)N3Cc4ccc5c(c4C3)OCCO5)C[C@H]1C(=O)N2 [Compound 12f]		< 30 nM
CC(C)OC(=O)N[C@H]1CCCCC/C=C\[C@@H]2C[C@@]2(C(=O)NS(=O)(=O)C2CC2)NC(=O)[C@@H]2C[C@@H](OC(=O)N3Cc4cc5c(cc4C3)OCO5)CN2C1=O [Compound 12q]		< 30 nM
CCC[C@H](NC(=O)C1C[C@@H](OC(=O)N2Cc3ccc4c(c3C2)OCO4)CN1C(=O)[C@@H](NC(=O)[C@@H](NC(=O)c1cnccn1)C1CCCCC1)C(C)(C)C)C(=O)C(=O)NC1CC1 (stereo partly shown) [Compound 33c]	30 to 200 nM	
O=C1N[C@]2(C(=O)NS(=O)(=O)C3CC3)C[C@H]2/C=C\CCCCC[C@H](NS(=O)(=O)c2ccccc2)C(=O)N2C[C@H](OC(=O)N3Cc4cc5c(cc4C3)OCO5)C[C@@H]12 [Compound 16b]		< 30 nM
C=C[C@H]1C[C@@]1(NC(=O)C1C[C@@H](OC(=O)N2Cc3cccc(F)c3C2)CN1C(=O)[C@@H](NC(=O)OC(C)(C)C)C(C)(C)C)C(=O)NS(=O)(=O)C1CC1 (stereo partly shown) [Compound 30aj]		< 30 nM
CC[C@H]1C[C@@]1(NC(=O)C1C[C@@H](OC(=O)N2Cc3cc4c(cc3C2)OCO4)CN1C(=O)[C@@H](NC(=O)[C@@H](NC(=O)OC(C)(C)C)C1CCCCC1)C(C)(C)C)C(=O)NS(=O)(=O)C1CC1 (stereo partly shown) [Compound 30m]	< 30 nM	
CC(C)(C)OC(=O)N[C@H]1CCCCC/C=C\[C@@H]2C[C@@]2(C(=O)O)NC(=O)[C@@H]2C[C@@H](OC(=O)N3Cc4cc5c(cc4C3)OCCO5)CN2C1=O [Compound 11c]		> 200 nM
CC(C)(C)OC(=O)N[C@H]1CCCCC/C=C\[C@@H]2C[C@@]2(C(=O)O)NC(=O)[C@@H]2C[C@@H](OC(=O)N3Cc4ccc5c(c4C3)OCO5)CN2C1=O [Compound 11a]		> 200 nM
CC(C)(C)OC(=O)N([C@H]1CCCCC/C=C\[C@@H]2C[C@@]2(C(=O)NS(=O)(=O)C2CC2)NC(=O)[C@@H]2C[C@@H](OC(=O)N3Cc4ccc5c(c4C3)OCO5)CN2C1=O)S(C)(=O)=O [Compound 12t]		< 30 nM
C=C[C@H]1C[C@@]1(NC(=O)C1C[C@@H](OC(=O)N2Cc3cc4c(cc3C2)OCO4)CN1C(=O)[C@@H](NC(=O)OC1CCCC1)C(C)(C)C)C(=O)NS(=O)(=O)C1CC1 (stereo partly shown) [Compound 30ak]		< 30 nM
